Assay results taken from patent publication US20020094524A1, “Compositions and methods for inhibiting HIV infection” (priority 2000, published 2002).

What was measured:
[1] = test system: CCR5; test: Macrophage receptor expression by flow cytometry; type: cell-based, human
Method: The cells were removed from the culture plate and then resuspended in 100 μl of phosphate-buffered saline (PBS). After incubation with 20 μl of either anti-CCR5-FITC or anti-CXCR4-FITC or anti-CD4-FITC or anti-CD14-FITC for 45 min at 4° C., the cells were washed twice with PBS and fixed with 1% paraformaldehyde in PBS. Fluorescein-conjugated control antibodies were isotype-matched IgG. Fluorescence was analyzed on an EPICS-Elite flow cytometer (Beckman-Coulter Electronics, Hialeah, Fla.).

[2] = test system: R5 strains (Bal, ADA, CSF-6 and BL-6); test: HIV RT activity in MDM infected with R5 strains; type: cell-based
Method: (§1) Based upon their differential use of the major HIV co-receptors, HIV isolates have been referred to as R5, X4 or R5X4 strains, respectively (29). The M-tropic (macrophage-tropic) R5 prototype strains (Bal and ADA), dual tropic strain (89.6) and X4 primary isolate (UG024), were obtained from the NIH AIDS Reagent Program. Primary M-tropic isolates (BL-6 and CSF-6) were isolated from the blood and cerebrospinal fluid cells, respectively, of a subject with AIDS.
(§2) The cells were also incubated with SP and/or anti-SP antibody. In this case, SP was incubated with (1:1000 dilution in 10% FCS DMEM) or without anti-SP antibody at room temperature for 10 min and then the mixture was added to the cell cultures for 2 h. When the cells were treated with the combination of CP-96,345 and SP, or CP-96,345, SP and anti-SP antibody, CP-96,345 was incubated with the cell culture for 10 min and then SP was added to the MDM or CP-96,345, SP and anti-SP (1:1000 in 10% FCS DMEM) were incubated for 10 min at room temperature and the mixture was incubated with the MDM for 2 h before infection with HIV. Untreated MDM served as controls. The cells were treated prior to, during, and throughout the infection. […]

[3] = test system: MLV Env-pseudotyped HIV; test: Pseudotype reporter virus entry assay, MLV Env; type: cell-based, murine leukemia virus
Method: Pseudotype reporter virus entry assay: Recombinant luciferase-encoding HIV virions pseudotyped with Env from the M-tropic ADA (CCR5-dependent) and amphitropic murine leukemia virus (MLV) (CCR5-independent) were used to study HIV infection of MDM incubated with or without CP-96,345 or R-113281. The Env-deleted luciferase reporter plasmid PNL-Luc-E-R+ (kindly provided by N. Landau) was cotransfected into 293T cells along with plasmids encoding the ADA or MLV Env genes as previously described (31). Supernatants were collected 48 h later, assayed for p24^Gag antigen content, and frozen at −80° C. MDM (2.5×10^5 cells/well, in 48-well plates) were incubated overnight with or without CP-96,345 or R-113281 and then infected using 20 ng of p24^Gag antigen equivalent of each pseudotype HIV per well, in the presence of polybrene (7.5 μg/ml). At 72 h postinfection, the cells were lysed in 150 μl of 0.5% Triton-X-100 in PBS. Lysate (50 μl) was mixed with an equal volume of luciferase substrate (Promega, […].) and luciferase activity was determined in a microtiter plate luminometer (Dynex Technologies, Chantilly, Va.). The results were expressed as relative light units (RLU) in CP-96,345-treated or R-113281-treated and infected MDM as a percentage of that in untreated and infected MDM.

[4] = test system: R5X4 strain (89.6); test: HIV RT activity in MDM infected with R5X4 strain; type: cell-based
Method: as §1, §2

[5] = test system: HIV Bal strain; test: HIV RT activity in HIV Bal strain-infected MDM; type: cell-based, HIV-1; details: for RT activity during HIV Bal infection of MDM: 10^−7−10^−6M (FIG. 18)
Method: The cells were also incubated with SP and/or anti-SP antibody. In this case, SP was incubated with (1:1000 dilution in 10% FCS DMEM) or without anti-SP antibody at room temperature for 10 min and then the mixture was added to the cell cultures for 2 h. When the cells were treated with the combination of CP-96,345 and SP, or CP-96,345, SP and anti-SP antibody, CP-96,345 was incubated with the cell culture for 10 min and then SP was added to the MDM or CP-96,345, SP and anti-SP (1:1000 in 10% FCS DMEM) were incubated for 10 min at room temperature and the mixture was incubated with the MDM for 2 h before infection with HIV. Untreated MDM served as controls. The cells were treated prior to, during, and throughout the infection.
HIV Infection: After 2 h incubation with or without the reagents described above, the cells were infected with equal amounts of cell-free HIV based on p24 antigen content (20 ng/10^6 cells) overnight, and then washed to remove unbound virus. Fresh media containing SP and/or CP-96,345 or anti-SP antibody were added to the MDM as described above. The culture media and the reagents were replaced twice weekly. The culture supernatants were harvested for HIV reverse transcriptase (RT) activity determinations. After HIV infection, the MDM were incubated for 8 to 12 days. At the termination of the experiments, cellular RNA was extracted for assessment of HIV gag gene expression using RT-PCR or real time RT-PCR assays.
The HIV RT activity assay was carried out based on the technique of Willey et al. (30) with modification (22).

[6] = CP-96,345 10^−7M, 8 days after infection (FIG. 6)
[7] = R-113281 10^−6 M, 8 days after infection (FIG. 14)

COc1ccccc1CN[C@H]1C2CCN(CC2)[C@H]1C(c1ccccc1)c1ccccc1 [CP-96,345, 2S, 3S)-cis-2-(diphenylmethyl)-N-[(2-methoxyphenyl)-methyl]-1-azabicyclo[[2.2.2]octan-3-amine]
CCR5 receptor expression on MDM (percentage positive cells) ([1]; overnight/24 h, among CD4, CCR5, CXCR4 and CD14 only CCR5 changed (FIG. 8)): down-regulated
replication of R5 strains (RT activity) [2, 6]: inhibited
MLV Env-pseudotyped HIV infection of MDM (luciferase activity) ([3]; CP-96,345 10^−8 and 10^−7M overnight (FIG. 10)): failed to block
replication of R5X4 strain 89.6 (RT activity) [4, 6]: inhibited to a lesser extent
viral replication by HIV RT activity vs HIV infection control ([5]; 10^−7M, 8 days after infection (FIG. 4)): inhibited
RT activity during HIV Bal infection of MDM [5]: inhibitory effects
HIV replication relative to HIV infection control ([5]; CP-96,345 10^−6M and/or anti-SP antibody 1:1000, 12 days (FIG. 5)): down-regulated HIV replication to a level that was even lower than that of the HIV infection control
inhibition at 1 µM ([5]; Human immunodeficiency virus 1, BAL, 192 h, 10^−6M, day 8 after HIV infection (FIG. 1B)): 54%
inhibition at 0.1 µM ([5]; Human immunodeficiency virus 1, BAL, 192 h, 10^−7M, day 8 after HIV infection (FIG. 1B)): 43%
inhibition at 0.01 µM ([5]; Human immunodeficiency virus 1, BAL, 192 h, 10^−8M, day 8 after HIV infection (FIG. 1B)): 1%
effect on SP-enhanced HIV replication in MDM (RT activity and gag mRNA) ([5]; SP 10^−6M, CP-96,345 10^−6M, anti-SP antibody 1:1000, 12 days (FIG. 5)): abrogated

COc1cc(C(=O)N2CCO[C@](CCN3CCC4(CC3)c3ccccc3C[S@+]4[O-])(c3ccc(Cl)c(Cl)c3)C2)cc(OC)c1OC.Cl [R-113281]
CCR5 protein expression (percentage CCR5 positive cells, flow cytometry) ([1]; R-113281 10^−6M, 24 hours (FIG. 15B)): inhibited
replication of R5 strains (RT activity) [2, 7]: inhibited
MLV-Env pseudotyped HIV infection of MDM (luciferase activity) ([3]; R-113281 10^−7 and 10^−6 overnight (FIG. 13)): failed to block
replication of R5X4 strain (RT activity) [4, 7]: inhibited to a lesser extent
RT activity during HIV Bal infection of MDM [5]: inhibitory effects
HIV RT activity in Bal-infected MDM ([5]; day 8 post-infection, indicated concentrations (FIG. 12)): significantly reduced
